Experimental findings from ChEMBL document CHEMBL4680160, “A perspective review on fatty acid amide hydrolase (FAAH) inhibitors as potential therapeutic agents” (Eur J Med Chem, 2020) are described below.

Experiment [1] concerns the target T1, Fatty-acid amide hydrolase 1 (Rattus norvegicus, UniProt P97612).
T1 sequence (P97612 whole entry): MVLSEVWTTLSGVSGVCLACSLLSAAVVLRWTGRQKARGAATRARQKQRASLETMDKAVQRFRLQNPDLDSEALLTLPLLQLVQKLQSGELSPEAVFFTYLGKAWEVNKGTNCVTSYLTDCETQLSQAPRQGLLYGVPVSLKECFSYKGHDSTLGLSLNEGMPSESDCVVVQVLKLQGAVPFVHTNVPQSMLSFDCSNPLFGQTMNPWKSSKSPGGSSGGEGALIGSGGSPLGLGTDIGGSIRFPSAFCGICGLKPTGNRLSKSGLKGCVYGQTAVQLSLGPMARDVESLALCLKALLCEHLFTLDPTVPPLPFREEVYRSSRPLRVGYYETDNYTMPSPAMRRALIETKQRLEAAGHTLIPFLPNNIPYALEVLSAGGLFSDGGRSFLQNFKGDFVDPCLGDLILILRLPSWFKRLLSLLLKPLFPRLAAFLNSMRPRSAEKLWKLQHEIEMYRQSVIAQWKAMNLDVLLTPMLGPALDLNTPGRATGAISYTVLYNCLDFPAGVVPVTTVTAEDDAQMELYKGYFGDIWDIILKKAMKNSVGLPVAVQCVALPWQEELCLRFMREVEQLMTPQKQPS
The experiment in a line: Inhibition of FAAH in rat brain homogenate using [3H]AEA as substrate. It counts as tissue-based.

The target in experiment [2] is T1, Fatty-acid amide hydrolase 1. The experiment in a line: Inhibition of FAAH in rat brain microsomes using N-(2-hydroxyethyl)-4-pyren-1-ylbutanamide as substrate incubated for 45 mins by reverse-phase HPLC-based fluorescence assay.
Experiment [3] shares this target. The experiment in a line: Inhibition of FAAH in rat brain homogenate using [3H]AEA as substrate incubated for 10 mins by liquid scintillation spectroscopy. Type of experiment: tissue-based.

Turning to `O=C(COc1ccc(C2CCCCC2)cc1)Nc1cccc(-c2nc3ncccc3[nH]2)c1`, the concentration for half-maximal inhibition (IC50) in experiment [1] was 47 µM. In other words, the double-digit micromolar range.
As for `N#CNC(COc1ccc(Oc2ccccc2)cc1)Cn1ncnn1` (configuration not stated), inhibition in experiment [2] was half-maximal at 5.3 µM (IC50).
In experiment [1], `O=C(COc1ccc(C2CCCCC2)cc1)Nc1cccc(-c2nc3ncccc3o2)c1` came in with an IC50 of 2.6 µM.
As to `CC(=O)Nc1ccc2c(cnn2CC(=O)COc2ccc(Oc3ccccc3)cc2)c1`, the IC50 in experiment [2] is 3.9 µM.
With `CC(C)Cc1ccc(C(C)C(=O)N2CCN(c3ccc(Cl)cc3)CC2)cc1` (configuration not stated), in experiment [3], the IC50 worked out at 1.7 µM.
The compound `O=C(COc1ccc(Oc2ccccc2)cc1)Cn1ncc2cc(NC(=O)NC3CCCCC3)ccc21` yielded an IC50 in experiment [2] of 0.84 µM.
The same measure, in the same setting: the value for `COCC(=O)Nc1ccc2c(cnn2CC(=O)COc2ccc(Oc3ccccc3)cc2)c1` was 6.3 µM.
On to `COc1ccc(N2CCN(C(=O)C(C)c3ccc(CC(C)C)cc3)CC2)cc1` (configuration not stated), for which the IC50 in experiment [3] worked out at 4.5 µM.
Compound `CC(C)Cc1ccc(C(C)C(=O)NCc2cccc(C(F)(F)F)c2)cc1` (configuration not stated) showed an IC50 in experiment [3] of 28 µM.
Same read-out and setting: the value for `COc1ccc(CNC(=O)C(C)c2ccc(CC(C)C)cc2)cc1` (configuration not stated) was 43 µM; that for `COc1ccc(CNC(=O)C(C)c2ccc(CC(C)C)cc2)cc1O` (configuration not stated) was 18 µM.
With `O=C(COc1ccc(-c2ccccc2)cc1)Nc1cccc(-c2nc3cccnc3[nH]2)c1`, 13 µM corresponded to half-maximal inhibition in experiment [1] (IC50).
The compound `CC(C)Cc1ccc(C(C)C(=O)NCc2ccccc2)cc1` (configuration not stated) yielded a half-inhibitory concentration (IC50) in experiment [3] of 21 µM.
In experiment [3], `CC(C)Cc1ccc(C(C)C(=O)NCc2ccc(Cl)cc2)cc1` (configuration not stated) had an IC50 of 27 µM. This IC50 and that of the compound before are within 1.5-fold of each other.
In experiment [2], `O=C(COc1ccc(Oc2ccccc2)cc1)Cn1ncc2cc(C(=O)NS(=O)(=O)c3ccccc3)ccc21` displayed an IC50 of 4.7 µM.
Still for that read-out and setting: the value for `O=C(COc1ccc(Oc2ccccc2)cc1)Cn1ncc2ccccc21` was 2.6 µM; that for `CS(=O)(=O)NC(=O)c1ccc2c(cnn2CC(=O)COc2ccc(Oc3ccccc3)cc2)c1` was 0.77 µM; that for `O=C(Cn1nnc2ccccc21)c1nc2cc(Oc3ccccc3)ccc2o1` was 10 µM.
On to `CCNC(=O)Nc1ccc2c(cnn2CC(=O)COc2ccc(Oc3ccccc3)cc2)c1`, for which, in experiment [2], the IC50 worked out at 1.6 µM.
`CC(C)Cc1ccc(C(C)C(=O)NCc2ccc(F)cc2)cc1` (configuration not stated): inhibition in experiment [3] was half-maximal at 27 µM (IC50).
Compound `CC(C)Cc1ccc(C(C)C(=O)NCc2ccc(C(C)(C)C)cc2)cc1` (configuration not stated) gave an IC50 in experiment [3] of 25 µM.
With `O=C(COc1ccc(Oc2ccccc2)cc1)Cn1ncc2cc([N+](=O)[O-])ccc21`, the IC50 in experiment [2] amounted to 0.55 µM. This lies in the sub-micromolar range.
In experiment [3], `Cc1cccc(N2CCN(C(=O)C(C)c3ccc(CC(C)C)cc3)CC2)c1` (configuration not stated) came in with an IC50 of 16 µM.
Still for that read-out and setting: the value for `CC(C)Cc1ccc(C(C)C(=O)N2CCN(c3cccc(Cl)c3)CC2)cc1` (configuration not stated) was 1.7 µM; that for `CC(C)Cc1ccc(C(C)C(=O)NCc2ccc(C(F)(F)F)cc2)cc1` (configuration not stated) was 51 µM; that for `Cc1cccc(N2CCN(C(=O)C(C)c3ccc(CC(C)C)cc3)CC2)c1C` (configuration not stated) was 1.7 µM.
Same read-out and setting: the result for `CC(C)Cc1ccc(C(C)C(=O)N2CCN(c3ccc(Cl)c(Cl)c3)CC2)cc1` (configuration not stated) reads 16 µM.
For `O=C(COc1ccc(Oc2ccccc2)cc1)Cn1ncc2cc(C(=O)NS(=O)(=O)C(F)(F)F)ccc21`, half-maximal inhibition in experiment [2] (IC50) required 0.51 µM.
For `COC(=O)Nc1ccc2c(cnn2CC(=O)COc2ccc(Oc3ccccc3)cc2)c1`, half-maximal inhibition in experiment [2] (IC50) required 4 µM. This IC50 is about 7.8-fold higher than that of the compound before.
The same measure, in the same setting: the value for `O=C(COc1ccc(Oc2ccccc2)cc1)Cn1ncc2cc(NC(=O)Oc3ccccc3)ccc21` was 2.1 µM.
The same measure, in the same setting: the value for `O=C(COc1ccc(Oc2ccccc2)cc1)Cn1ncc2cc(C(=O)O)ccc21` was 0.055 µM; that for `O=C(COc1ccc(Oc2ccccc2)cc1)Cn1ncnn1` was 0.008 µM.
Regarding `CC(C)Cc1ccc(C(C)C(=O)N2CCN(c3ccccc3)CC2)cc1` (configuration not stated), the IC50 in experiment [3] is 4.7 µM.
As for `O=C(COc1ccc(Oc2ccccc2)cc1)Cn1ncc2cc(NC(=O)Nc3ccccc3)ccc21`, in experiment [2], half-maximal inhibition (IC50) was put at 6 µM.
For the compound `O=C(COc1ccc(Oc2ccccc2)cc1)Cn1ncc2cc(NC(=O)CO)ccc21`, in experiment [2], the IC50 stood at 5.4 µM.
Compound `COc1ccccc1CNC(=O)C(C)c1ccc(CC(C)C)cc1` (configuration not stated) returned an IC50 in experiment [3] of 18 µM.
On the same count and under the same terms, the result for `CC(C)Cc1ccc(C(C)C(=O)NCc2ccc(Cl)c(Cl)c2)cc1` (configuration not stated) reads 36 µM.

In general, IC50 refers to the concentration that inhibits the measured activity by half. Higher therefore signals weaker potency in that assay.
